Assay results: US20200197526A1, “REFILLABLE DRUG DELIVERY DEVICES AND METHODS OF USE THEREOF” (President and Fellows of Harvard College, priority 2014, published 2020)

Columns and labels:
[1] = test system: DNA-conjugated calcium-alginate gels; assay: In vitro binding of fluorescent oligonucleotides to DNA-conjugated calcium alginate gels (FIG. 2); details: alginate-(T)20 calcium gel; phosphate buffer with 1 mM calcium chloride
[2] = test system: MDA-MB-231 xenograft tumors; assay: Xenograft tumor study with drug refilling; format: in vivo, J:Nu mice; details: 120 μg doxorubicin per animal IV (FIG. 5C)
Protocol: All animal experiments were performed according to established animal protocols. Tumors were created by injecting 10^6 MDA-MB-231 cells (American Type Culture Collection, VA) combined with Matrigel (BD Biosciences, CA) to a total volume of 200 μL (100 μL PBS and 100 μL Matrigel) into the hind limbs of 8 week old J:Nu (Foxn1^nu/Foxn1^nu) mice (Jackson Labs, ME). 35 days following tumor inoculation tumors were injected with alginate gels. 20 mg/mL alginate conjugated to DNA (thioT-SH or unconjugated) was mixed with doxorubicin (1.6 mg drug per mL of gel), then crosslinked with 4% wt/v CaSO4 (1.22 M) and then 50 μL of gel were injected into tumors with a 23-gauge needle. 2, 3, 4, and 5 weeks after initial tumoral gel injection, mice were injected retro-orbitally with 100 μL 0.5% DNA-conjugated alginate carrying doxorubicin (5% oxidized alginate, thioA-SH, Dye-750, 160 μg Dox-hydrazide=120 μg Dox). Throughout the study, tumor area was measured twice per week with digital calipers in two dimensions and the product of the two dimensional values was used to approximate tumor area. […]
The breast cancer MDA-MB-231 model was chosen because it is a slow-growing tumor, widely used to test chemotherapeutic strategies. […] The ability of targeted therapy to reduce tumor size was assessed by monitoring the change in tumor size in the three days following each IV administration. […]

Q: Which “binding of fluorescently-labeled oligonucleotides to gel surface” value [1] does the source give for TTTTTTTTTTTTTTTTTTTT-FAM [(T)20] here?
A: The value was “little binding”.

Q: For AAAAAAAAAAAAAAAAAAAA-FAM [(A)20], which “binding of fluorescently-labeled oligonucleotides to gel surface” value [1] is on record?
A: The value was “bound to the gel surface in a sequence-specific manner”.

Q: With `COc1cccc2c1C(=O)c1c(O)c3c(c(O)c1C2=O)C[C@@](O)(C(=O)CO)C[C@@H]3O[C@H]1C[C@H](N)[C@H](O)[C@H](C)O1` [doxorubicin] as the compound, how does the “change in tumor size in the three days following each IV administration” value [2] read?
A: The value was “continued to grow”.
